These are literature values, as cited in patent US20180055813A1, “COMPOSITIONS AND METHODS FOR TREATING ATRIAL FIBRILLATION” (Edge Therapeutics, Inc., priority 2016, published 2018).

Read-outs that look alike come from different tables or passages of the source.

Series [1] concerns high-plateau action potentials.
The conditions of series [2]: for incidence of postoperative AF: AFIST I, patients >60 years.
For series [3], the system named is voltage-dependent sodium channels. The conditions noted are these: relative to phenytoin.
The conditions of series [4]: phase III clinical trials, compared with placebo.
Series [5] has as its system K+ and Na+ currents, and L, P/Q and T-type calcium currents.
The next series deals with N-type calcium current (Homo sapiens, UniProt Q00975). The following applies: at 300 nM to 500 nM.
N-type calcium current, sequence (Q00975 whole entry): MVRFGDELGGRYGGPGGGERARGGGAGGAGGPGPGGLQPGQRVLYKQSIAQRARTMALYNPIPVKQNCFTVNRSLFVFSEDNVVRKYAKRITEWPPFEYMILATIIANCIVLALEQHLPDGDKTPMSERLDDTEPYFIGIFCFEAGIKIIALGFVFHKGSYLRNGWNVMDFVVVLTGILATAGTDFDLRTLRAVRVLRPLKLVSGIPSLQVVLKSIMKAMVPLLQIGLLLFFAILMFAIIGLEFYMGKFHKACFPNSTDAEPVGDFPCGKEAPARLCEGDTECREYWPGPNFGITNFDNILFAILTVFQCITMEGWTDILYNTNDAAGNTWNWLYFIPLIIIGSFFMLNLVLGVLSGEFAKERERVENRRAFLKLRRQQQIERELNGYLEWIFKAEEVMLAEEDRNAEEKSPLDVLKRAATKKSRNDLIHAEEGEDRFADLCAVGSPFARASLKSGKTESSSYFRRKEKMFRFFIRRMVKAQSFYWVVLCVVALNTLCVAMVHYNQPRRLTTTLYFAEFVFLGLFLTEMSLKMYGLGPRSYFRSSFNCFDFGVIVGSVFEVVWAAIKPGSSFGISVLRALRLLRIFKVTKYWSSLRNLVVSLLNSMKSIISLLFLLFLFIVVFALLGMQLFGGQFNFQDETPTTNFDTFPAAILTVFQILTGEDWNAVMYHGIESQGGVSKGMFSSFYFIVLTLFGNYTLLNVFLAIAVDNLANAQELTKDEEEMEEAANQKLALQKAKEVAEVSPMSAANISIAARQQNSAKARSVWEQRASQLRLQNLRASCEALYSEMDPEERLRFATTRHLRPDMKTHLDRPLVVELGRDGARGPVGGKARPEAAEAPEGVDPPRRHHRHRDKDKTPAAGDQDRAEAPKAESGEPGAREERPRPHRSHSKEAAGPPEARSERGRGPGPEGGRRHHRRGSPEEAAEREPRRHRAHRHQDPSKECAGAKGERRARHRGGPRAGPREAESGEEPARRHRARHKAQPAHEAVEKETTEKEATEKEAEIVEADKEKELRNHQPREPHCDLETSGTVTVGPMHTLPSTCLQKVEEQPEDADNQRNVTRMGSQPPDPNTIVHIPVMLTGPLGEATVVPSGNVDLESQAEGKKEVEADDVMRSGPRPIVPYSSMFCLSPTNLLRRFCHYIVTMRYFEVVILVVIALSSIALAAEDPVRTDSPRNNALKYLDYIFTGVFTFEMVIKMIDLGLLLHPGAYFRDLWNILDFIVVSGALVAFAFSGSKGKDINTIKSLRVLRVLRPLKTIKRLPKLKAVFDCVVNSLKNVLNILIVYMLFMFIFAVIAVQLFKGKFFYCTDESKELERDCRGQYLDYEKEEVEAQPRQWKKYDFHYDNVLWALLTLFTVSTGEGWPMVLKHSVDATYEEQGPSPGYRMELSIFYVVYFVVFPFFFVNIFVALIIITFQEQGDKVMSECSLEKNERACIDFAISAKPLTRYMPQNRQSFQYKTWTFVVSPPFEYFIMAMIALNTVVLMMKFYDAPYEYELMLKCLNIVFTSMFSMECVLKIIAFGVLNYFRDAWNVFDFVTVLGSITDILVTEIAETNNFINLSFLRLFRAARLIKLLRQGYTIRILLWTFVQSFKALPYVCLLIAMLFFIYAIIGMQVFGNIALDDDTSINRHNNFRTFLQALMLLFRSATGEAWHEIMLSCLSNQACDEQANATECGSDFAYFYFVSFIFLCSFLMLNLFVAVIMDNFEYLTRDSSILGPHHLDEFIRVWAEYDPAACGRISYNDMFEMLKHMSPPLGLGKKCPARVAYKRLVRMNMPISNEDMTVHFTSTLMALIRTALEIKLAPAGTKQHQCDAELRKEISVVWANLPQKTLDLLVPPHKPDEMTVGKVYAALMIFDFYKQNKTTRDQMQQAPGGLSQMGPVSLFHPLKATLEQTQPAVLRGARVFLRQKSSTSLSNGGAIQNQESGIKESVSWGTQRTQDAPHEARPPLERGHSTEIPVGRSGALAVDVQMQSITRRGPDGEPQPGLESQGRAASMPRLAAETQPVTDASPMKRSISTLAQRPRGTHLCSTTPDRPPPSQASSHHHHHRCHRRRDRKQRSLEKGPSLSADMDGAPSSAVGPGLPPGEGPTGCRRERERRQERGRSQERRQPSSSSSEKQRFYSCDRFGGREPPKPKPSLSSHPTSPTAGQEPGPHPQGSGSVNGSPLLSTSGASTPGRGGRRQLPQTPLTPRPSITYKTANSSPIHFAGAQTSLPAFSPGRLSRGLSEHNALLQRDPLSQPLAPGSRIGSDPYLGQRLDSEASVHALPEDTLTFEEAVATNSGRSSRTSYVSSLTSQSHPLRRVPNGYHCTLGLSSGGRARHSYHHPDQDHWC

As to `Cc1oc2ccccc2c1Cc1cc(I)c(OCC(=O)O)c(I)c1` [KB130015, 2-methyl-3-(3,5-diiodo-4-carboxymethoxybenzyl)benzofuran], the “QT lengthening / prolongation of high-plateau action potentials” value in series [1] is listed as “devoid of QT lengthening effects”.
Turning to `CCCCc1oc2ccccc2c1C(=O)c1cc(I)c(OCCN(CC)CC)c(I)c1` [amiodarone], the “incidence of postoperative AF, patients” value in series [2] (1-week pre-operative oral regimen, placebo 53%) was 25%; in series [2] (postoperative intravenous treatment, placebo 47%), 35%; in series [2] (treatment throughout the peri-operative period, placebo 25%) it was 16%. For the same molecule, the “incidence of postoperative AF” value is 35% in series [2] (amiodarone alone) and 16% in series [2] (amiodarone with concomitant postoperative β-blockers).
As for `NC(=O)N1c2ccccc2C=Cc2ccccc21` [carbamazepine], in series [3], the “faster rate of binding to depolarized channels compared to phenytoin” value is 5 fold and the “lower affinity for depolarized channels compared to phenytoin” value is 3 fold.
For the molecule `CCCCc1oc2ccc(NS(C)(=O)=O)cc2c1C(=O)c1ccc(OCCCN(CCCC)CCCC)cc1` [dronedarone, n-(2-butyl-3-(4-(3-dibutylaminopropoxy)-benzoyl)benzofuran-5-yl)-methanesulfonamide], the “lowering of risk of AF relapse” value in series [4] was 25%.
As to `CCOC(=O)[C@H](CCc1ccccc1)N[C@@H](C)C(=O)N1CCC[C@H]1C(=O)O` [enalapril], for the setting “compared to placebo”, the “relative risk reduction for the development of AF” value was 78%.
For the molecule `CCCCC1=NC2(CCCC2)C(=O)N1Cc1ccc(-c2ccccc2-c2nnn[nH]2)cc1` [irbesartan], for the setting “irbesartan plus amiodarone versus amiodarone alone”, the “prevention of recurrence of AF” value was “more effectively than amiodarone alone”.
Consider SNX-482, for which, in series [5], the “effect on K+ and Na+ currents, and L, P/Q and T-type calcium currents” value was “no effect”. Moreover, the “N-type calcium current blocked” value on N-type calcium current is given as 30-50%. The “block of R-type calcium current” value in the series with R-type calcium current (neurohypophysial nerve endings, 40 nM concentration) is reported as “blocks”. The “effect on R-type current” value in the series with R-type calcium current (preparations of the neuronal cell body, retinal ganglion cells and hippocampal pyramidal cells) is listed as “no significant effect”.
